Assay results taken from patent EP0830890A1, “Surfactants for use in liquid/supercritical CO2” (AIR PRODUCTS AND CHEMICALS, INC., priority 1996, dated 1998).
Blank lines part the entries; values can stand above or below the compound they belong to.

Columns and labels:
Format in all cases: physicochemical
[1] = Solubility in CO2 by cloud point determination in a variable volume view cell; parameters: Pressure Describing Cloud Point Determinations For Surfactant/CO2 Concentrations / Pressure Describing Cloud Point Determinations For Surfactant/CO2Concentrations: unit not given here
Description: In the following examples, mixtures of acetylenic alcohols or diols and CO2 were prepared by adding the acetylenic alcohol or diol to a stainless steel variable volume view cell equiped with suitable relief devices, high pressure valves CO2 inlet and outlet and a sapphire window at one end. A high pressure syringe pump (High Pressure Products, HIP pump) was filled with liquid CO2 and used to quantitiatively add CO2 to the pressure vessel. The pressure vessel contained a magnetic stirrer and was stirred via a magnetic couple to a magnet located below the vessel.
A weighed amount of surfactant (0.5-10 weight %) was placed inside the cell chamber in front of the piston. The cell window was attached and 10 cc ? s of CO2, was added to the cell. The surfactant was mixed in the CO2 using a magnetic stirring bar. The cell was mounted in horizontally and then immersed in a water bath. After allowing the high pressure cell to attain thermal equilibrium the pressure within the cell was varied using a floating piston. The pressure was changed to monitor the cloud point as being indicative of insolubility. The operator viewed the floating piston through the sapphire window using a suitable optic device, the onset of insolubility was taken when the translucent solution changed to an orange/brown color due to the Tindall light scattering of the insoluble droplets. The onset of insolubility was checked several times by varying the pressure using the high pressure syringe pump.
A water bath was used to vary the temperature for each concentration. On completing the solubility studies at one concentration and one temperature series, a calibrated injector loop attached to the high pressure cell was filled with the surfactant via a syringe. Utilizing a six way valve to help inject this fixed amount of surfactant, the surfactant concentration within the high pressure cell was increased by a fixed increment. The solubility studies for this new CO2/surfactant concentration were measured at various temperatures in a similar manner to that previously described.

[2] = Interfacial tension of a PEG 600 drop in CO2/surfactant solution via pendant drop technique; details: for Interfacial Tension IFT: PEG (600) drop, 2 weight % Surfynol/CO2 solution
Excerpt: Interfacial activity can be monitored using the 'pendant drop' technique, ("Chemistry of Interfaces" M.J.Jaycock & Parfitt, John Wiley and Sons, New York p49-51). This method is utilized to measure the interfacial tension between a pendant drop and a continuous phase that surrounds the drop. When carbon dioxide is used as the continuous media, special high pressure equipment with sapphire view ports is required to maintain a solution of CO2 and surfactant, and to study the change in shape of the pendant drop for interfacial tension calculations. A general procedure for these high pressure phase behavior measurements may be found in Langmuir, vol. 10 1994, pg 3536-3541, by K. Harrison, K. P. Johnston, J. Goveas and E. A. O ? Rear.
Various ethoxylates of 2,4,7,9-tetramethyl-5-decyn-4,7-diol were used in the interfacial tension study. Table 3 gives the interfacial tension observed for ethoxylates of 2,4,7,9-tetramethyl-5-decyn-4,7-diol containing 20, 40, and 65 wt% ethylene oxide. The table also gives the interfacial tension of the polyethyleneglycol (PEG 600)drop within the pure CO2 media. […] It is interesting to note the actual reduction in interfacial tension. For a control PEG 600 drop at 2510 psi the interfacial tension was measured to be 3.39 dyne/cm (run #5in Table 3). […] This corresponds to lowering the interfacial tension by 0.54 dyne/cm, a 16% reduction. A surfactant/CO2 solution of 2 weight % (using the 40 wt% ethoxylated Surfynol surfactant) gave an interfacial tension of 1.57 dyne/cm. at a CO2 pressure of 4030 psi (run #33in Table 3). The corresponding PEG drop at 4093psi used as the control gave an interfacial tension of 1.92dyne/cm (run #18 in Table 3).

[3] = PEG (MW=600) uptake by surfactant/CO2 mixture (phase behavior, cloud point); details: Wt% Surfactant in CO2 0.897%
[4] = 2 weight % in CO2 at 2501 psi vs control PEG 600 drop at 2510 psi

- Pressure Describing Cloud Point Determinations For Surfactant/CO2 Concentrations ([1]; Surfactant Concn. in CO2 0.50 wt%, 35°C): 1480
- Pressure Describing Cloud Point Determinations For Surfactant/CO2 Concentrations ([1]; Surfactant Concn. in CO2 0.50 wt%, 45°C): 1800
- Pressure Describing Cloud Point Determinations For Surfactant/CO2 Concentrations ([1]; Surfactant Concn. in CO2 0.50 wt%, 55°C): 2200
- Pressure Describing Cloud Point Determinations For Surfactant/CO2 Concentrations ([1]; Surfactant Concn. in CO2 1.50 wt%, 35°C): 1530
- Pressure Describing Cloud Point Determinations For Surfactant/CO2 Concentrations ([1]; Surfactant Concn. in CO2 1.50 wt%, 45°C): 1900
- Pressure Describing Cloud Point Determinations For Surfactant/CO2 Concentrations ([1]; Surfactant Concn. in CO2 1.50 wt%, 55°C): 2260
- Pressure Describing Cloud Point Determinations For Surfactant/CO2 Concentrations ([1]; Surfactant Concn. in CO2 2.50 wt%, 35°C): 1500
- Pressure Describing Cloud Point Determinations For Surfactant/CO2 Concentrations ([1]; Surfactant Concn. in CO2 2.50 wt%, 45°C): 1860
- Pressure Describing Cloud Point Determinations For Surfactant/CO2 Concentrations ([1]; Surfactant Concn. in CO2 2.50 wt%, 55°C): 2210
- Pressure Describing Cloud Point Determinations For Surfactant/CO2 Concentrations ([1]; Surfactant Concn. in CO2 5.00 wt%, 35°C): 1380
- Pressure Describing Cloud Point Determinations For Surfactant/CO2 Concentrations ([1]; Surfactant Concn. in CO2 5.00 wt%, 45°C): 1770
- Pressure Describing Cloud Point Determinations For Surfactant/CO2 Concentrations ([1]; Surfactant Concn. in CO2 5.00 wt%, 55°C): 2120
- Pressure Describing Cloud Point Determinations For Surfactant/CO2 Concentrations ([1]; Surfactant Concn. in CO2 7.60 wt%, 35°C): 1280
- Pressure Describing Cloud Point Determinations For Surfactant/CO2 Concentrations ([1]; Surfactant Concn. in CO2 7.60 wt%, 45°C): 1680
- Pressure Describing Cloud Point Determinations For Surfactant/CO2 Concentrations ([1]; Surfactant Concn. in CO2 7.60 wt%, 55°C): 2030
- Pressure Describing Cloud Point Determinations For Surfactant/CO2 Concentrations ([1]; Surfactant Concn. in CO2 10.20 wt%, 35°C): 1200
- Pressure Describing Cloud Point Determinations For Surfactant/CO2 Concentrations ([1]; Surfactant Concn. in CO2 10.20 wt%, 45°C): 1590
- Pressure Describing Cloud Point Determinations For Surfactant/CO2 Concentrations ([1]; Surfactant Concn. in CO2 10.20 wt%, 55°C): 1950
- solubility levels by weight to CO2 ([1]; in CO2): 10.2 % by weight
Compound: C#CC(C)(O)CC(C)C (stereo not drawn) [3,5-dimethyl-1-hexyn-3-ol]

- Pressure Describing Cloud Point Determinations For Surfactant/CO2Concentrations ([1]; Surfactant Concn. in CO2 1.3646 wt%, 25°C): 1410
- Pressure Describing Cloud Point Determinations For Surfactant/CO2Concentrations ([1]; Surfactant Concn. in CO2 1.3646 wt%, 35°C): 2040
- Pressure Describing Cloud Point Determinations For Surfactant/CO2Concentrations ([1]; Surfactant Concn. in CO2 1.3646 wt%, 60°C): 3060
- Pressure Describing Cloud Point Determinations For Surfactant/CO2Concentrations ([1]; Surfactant Concn. in CO2 2.6028 wt%, 35°C): 2710
- Pressure Describing Cloud Point Determinations For Surfactant/CO2Concentrations ([1]; Surfactant Concn. in CO2 2.6028 wt%, 60°C): 4040
- Pressure Describing Cloud Point Determinations For Surfactant/CO2Concentrations ([1]; Surfactant Concn. in CO2 2.6028 wt%, 65°C): 4330
- Pressure Describing Cloud Point Determinations For Surfactant/CO2Concentrations ([1]; Surfactant Concn. in CO2 3.2104 wt%, 35°C): 2990
- Pressure Describing Cloud Point Determinations For Surfactant/CO2Concentrations ([1]; Surfactant Concn. in CO2 3.2104 wt%, 60°C): 3950
- Pressure Describing Cloud Point Determinations For Surfactant/CO2Concentrations ([1]; Surfactant Concn. in CO2 3.2104 wt%, 65°C): 4330
- Pressure Describing Cloud Point Determinations For Surfactant/CO2Concentrations ([1]; Surfactant Concn. in CO2 3.8330 wt%, 25°C): 1870
- Pressure Describing Cloud Point Determinations For Surfactant/CO2Concentrations ([1]; Surfactant Concn. in CO2 3.8330 wt%, 45°C): 2860
- Pressure Describing Cloud Point Determinations For Surfactant/CO2Concentrations ([1]; Surfactant Concn. in CO2 3.8330 wt%, 65°C): 3770
- surfactant is soluble in CO2 ([1]; in CO2): up to 4 wt%
- lowering the interfacial tension [2, 4]: 0.54 dyne/cm
- reduction in interfacial tension [2, 4]: 16%
- Interfacial Tension IFT ([2]; 1984 psi (137 bar)): 3.45 dyne/cm
- Interfacial Tension IFT ([2]; 2140 psi (148 bar)): 3.05 dyne/cm
- Interfacial Tension IFT ([2]; 2498 psi (172 bar)): 2.75 dyne/cm
- Interfacial Tension IFT ([2]; 2501 psi (173 bar)): 2.85 dyne/cm
- Interfacial Tension IFT ([2]; 3007 psi (207 bar)): 2.32 dyne/cm
- Interfacial Tension IFT ([2]; 3574 psi (246 bar)): 1.83 dyne/cm
Compound: Ethoxylated 2,4,7,9-Tetramethyl-5-decyn-4,7-diol [AP-420]

- Pressure Describing Cloud Point Determinations For Surfactant/CO2Concentrations ([1]; Surfactant Concn. in CO2 0.6159 wt%, 25°C): 1200
- Pressure Describing Cloud Point Determinations For Surfactant/CO2Concentrations ([1]; Surfactant Concn. in CO2 0.6159 wt%, 45°C): 1750
- Pressure Describing Cloud Point Determinations For Surfactant/CO2Concentrations ([1]; Surfactant Concn. in CO2 1.2484 wt%, 25°C): 1840
- Pressure Describing Cloud Point Determinations For Surfactant/CO2Concentrations ([1]; Surfactant Concn. in CO2 1.2484 wt%, 35°C): 2610
- Pressure Describing Cloud Point Determinations For Surfactant/CO2Concentrations ([1]; Surfactant Concn. in CO2 1.8749 wt%, 60°C): 3740
- Pressure Describing Cloud Point Determinations For Surfactant/CO2Concentrations ([1]; Surfactant Concn. in CO2 2.8386 wt%, 25°C): 2580
- Pressure Describing Cloud Point Determinations For Surfactant/CO2Concentrations ([1]; Surfactant Concn. in CO2 2.8386 wt%, 45°C): 4300
- Pressure Describing Cloud Point Determinations For Surfactant/CO2Concentrations ([1]; Surfactant Concn. in CO2 2.8386 wt%, 60°C): 4510
- Pressure Describing Cloud Point Determinations For Surfactant/CO2Concentrations ([1]; Surfactant Concn. in CO2 4.0446 wt%, 25°C): 2700
- Pressure Describing Cloud Point Determinations For Surfactant/CO2Concentrations ([1]; Surfactant Concn. in CO2 4.0446 wt%, 35°C): 3740
- Pressure Describing Cloud Point Determinations For Surfactant/CO2Concentrations ([1]; Surfactant Concn. in CO2 4.0446 wt%, 45°C): 4440
- Pressure Describing Cloud Point Determinations For Surfactant/CO2Concentrations ([1]; Surfactant Concn. in CO2 4.0446 wt%, 60°C): 4670
- reduction in interfacial tension ([2]; 2 weight % in CO2 at 4030 psi vs control PEG drop at 4093psi): 18.2%
- Interfacial Tension IFT ([2]; 3146 psi (217 bar)): 2.04 dyne/cm
- Interfacial Tension IFT ([2]; 3522 psi (243 bar)): 1.96 dyne/cm
- Interfacial Tension IFT ([2]; 3536 psi (244 bar)): 1.93 dyne/cm
- Interfacial Tension IFT ([2]; 4028 psi (278 bar)): 1.56 dyne/cm
- Interfacial Tension IFT ([2]; 4030 psi (278 bar)): 1.57 dyne/cm
- Interfacial Tension IFT ([2]; 4568 psi (315 bar)): 1.38 dyne/cm
- Interfacial Tension IFT ([2]; 4592 psi (317 bar)): 1.35 dyne/cm
- Wt% of PEG (MW=600) uptake ([3]; 4040 psi 25°C): 1.091%
- Wt% of PEG (MW=600) uptake ([3]; 4550 psi 25°C): 1.360%
- Wt% of PEG (MW=600) uptake ([3]; 5220 psi 25°C): 1.627%
Compound: Ethoxylated 2,4,7,9-Tetramethyl-5-decyn-4,7-diol [AP-440]
